26 compounds from patent publication US10894784B2, “Heteroarylbenzimidazole compounds” (BAYER PHARMA AKTIENGESELLSCHAFT, priority 2015, dated 2021) can be followed below.

The structures appear in SMILES notation. pIC50: −log10 of the molar value.

The test addresses TBK1 (Homo sapiens (Human), UniProt Q9UHD2). The experiment in a line: TBK1 low ATP kinase assay (in vitro assay 1). The conditions noted are these: in vitro assay 1, read-out: TBK1 low ATP kinase assay IC50. Format: biochemical.

Chain of TBK1 (Q9UHD2 whole entry): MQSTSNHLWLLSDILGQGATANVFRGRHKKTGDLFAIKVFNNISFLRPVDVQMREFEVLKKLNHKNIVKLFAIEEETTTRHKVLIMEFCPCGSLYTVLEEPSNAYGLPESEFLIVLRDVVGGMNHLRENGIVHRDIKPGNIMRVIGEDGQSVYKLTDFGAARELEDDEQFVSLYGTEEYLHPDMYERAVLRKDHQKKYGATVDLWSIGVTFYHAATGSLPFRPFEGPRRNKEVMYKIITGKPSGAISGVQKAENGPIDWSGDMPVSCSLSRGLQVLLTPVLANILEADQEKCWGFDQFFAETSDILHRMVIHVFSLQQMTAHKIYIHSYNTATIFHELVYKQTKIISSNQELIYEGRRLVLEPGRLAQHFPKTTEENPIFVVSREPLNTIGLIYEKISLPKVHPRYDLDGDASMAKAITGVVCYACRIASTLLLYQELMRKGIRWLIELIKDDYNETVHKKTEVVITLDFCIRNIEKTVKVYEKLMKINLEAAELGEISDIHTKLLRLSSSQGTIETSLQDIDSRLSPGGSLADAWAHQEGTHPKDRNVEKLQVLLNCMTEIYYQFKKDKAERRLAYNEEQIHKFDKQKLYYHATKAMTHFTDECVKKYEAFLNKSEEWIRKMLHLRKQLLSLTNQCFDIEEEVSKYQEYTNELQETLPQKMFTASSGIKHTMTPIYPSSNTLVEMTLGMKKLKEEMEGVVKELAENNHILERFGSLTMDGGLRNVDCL

As to `COc1cnc(C)cc1-c1ccc2nc(Nc3cc(CN4CCN(C(=O)CC5CC5)CC4)ccn3)[nH]c2c1` [Example 07.04, 2-cyclopropyl-1-{4-[(2-{[6-(5-methoxy-2-methylpyridin-4-yl)-1H-benzimidazol-2-yl]amino}pyridin-4-yl)methyl]piperazin-1-yl}ethanone], the pIC50 is 6.35. As for `CC(c1ccnc(Nc2nc3ccc(-c4cc(N5CCOCC5)ncn4)cc3[nH]2)c1)N1CCN(C(=O)C2(C(F)(F)F)CC2)CC1` (single isomer, unassigned) [Example 118.04, (4-{(1R or 1S)-1-[2-({6-[6-(morpholin-4-yl)pyrimidin-4-yl]-1H-benzimidazol-2-yl}amino)pyridin-4-yl]ethyl}piperazin-1-yl)[1-(trifluoromethyl)cyclopropyl]methanone], the pIC50 is 8.59. As for `COCc1cc(-c2ccc3nc(Nc4cc(CN5CCN(C(=O)C6CC6)CC5)ccn4)[nH]c3c2)ncn1` [Example 79.02, cyclopropyl(4-{[2-({6-[6-(methoxymethyl)pyrimidin-4-yl]-1H-benzimidazol-2-yl}amino)pyridin-4-yl]methyl}piperazin-1-yl)methanone], the figure is 8.32. Take `Cn1ncnc1-c1ccc2nc(Nc3cc(CN4CCN(C(=O)CC(F)(F)F)CC4)ccn3)[nH]c2c1` [Example 41.02, 3,3,3-trifluoro-1-{4-[(2-{[6-(1-methyl-1H-1,2,4-triazol-5-yl)-1H-benzimidazol-2-yl]amino}pyridin-4-yl)methyl]piperazin-1-yl}propan-1-one]: the pIC50 was 6.17.

As for `CC(C)(C)OC(=O)N1CCN(Cc2ccnc(Nc3nc4ccc(-c5cc(OCC6CCC6)ncn5)cc4[nH]3)c2)CC1` [Example 159.01, tert-butyl 4-{[2-({6-[6-(cyclobutylmethoxy)pyrimidin-4-yl]-1H-benzimidazol-2-yl}amino)pyridin-4-yl]methyl}piperazine-1-carboxylate], the pIC50 was 6.51.

As for `CC(c1ccnc(Nc2nc3ccc(-c4cnn(CC5CC(F)(F)C5)c4)cc3[nH]2)c1)N1CCN(C(=O)C2CC2)CC1` (single isomer, unassigned) [Example 169.03, cyclopropyl{4-[(1R or 1S)-1-{2-[(6-{1-[(3,3-difluorocyclobutyl)methyl]-1H-pyrazol-4-yl}-1H-benzimidazol-2-yl)amino]pyridin-4-yl}ethyl]piperazin-1-yl}methanone], the pIC50 is 7.78. As for `Cc1cc(-c2ccc3nc(Nc4cc(C(C)N5CCN(C(=O)C6CCC6)CC5)ccn4)[nH]c3c2)ncn1` (racemic) [Example 30.02.02, (rac)-cyclobutyl{4-[1-(2-{[6-(6-methylpyrimidin-4-yl)-1H-benzimidazol-2-yl]amino}pyridin-4-yl)ethyl]piperazin-1-yl}methanone], the figure is 8.10; as for `Cc1cc(-c2ccc3nc(Nc4cc(CN5CCN(C(=O)C6CC6)CC5)ccn4)[nH]c3c2)nc(C)n1` [Example 31.02, cyclopropyl{4-[(2-{[6-(2,6-dimethylpyrimidin-4-yl)-1H-benzimidazol-2-yl]amino}pyridin-4-yl)methyl]piperazin-1-yl}methanone], 7.11; as for `Cc1nccc(-c2ccc3nc(Nc4cc(C(C)N5CCN(C(=O)C6CCC6)CC5)ccn4)[nH]c3c2)n1` (single isomer, unassigned) [Example 24.05.02.B, cyclobutyl{4-[(1S or 1R)-1-(2-{[6-(2-methylpyrimidin-4-yl)-1H-benzimidazol-2-yl]amino}pyridin-4-yl)ethyl]piperazin-1-yl}methanone], 7.26. As for `CCNc1cc(-c2ccc3nc(Nc4cc(CN5CCN(C(=O)CC(F)(F)F)CC5)ccn4)[nH]c3c2)ncn1` [Example 149.02, 1-(4-{[2-({6-[6-(ethylamino)pyrimidin-4-yl]-1H-benzimidazol-2-yl}amino)pyridin-4-yl]methyl}piperazin-1-yl)-3,3,3-trifluoropropan-1-one], the figure is 8.70; as for `Cc1noc(-c2ccc3nc(Nc4cc(CN5CCN(c6ccc(C(F)(F)F)cn6)CC5)ccn4)[nH]c3c2)n1` [Example 101.08, 6-(3-methyl-1,2,4-oxadiazol-5-yl)-N-[4-({4-[5-(trifluoromethyl)pyridin-2-yl]piperazin-1-yl}methyl)pyridin-2-yl]-1H-benzimidazol-2-amine], less than 4.70. The result for `Cc1noc(-c2ccc3nc(Nc4cc(CN5CCN(C(=O)OC(C)(C)C)CC5)ccn4)[nH]c3c2)n1` [Example 16.01.01, tert-butyl 4-[(2-{[6-(3-methyl-1,2,4-oxadiazol-5-yl)-1H-benzimidazol-2-yl]amino}pyridin-4-yl)methyl]piperazine-1-carboxylate] reads 6.64.

For `COc1cc(-c2ccc3nc(Nc4cc(C(C)N5CCN(C(=O)CC(F)(F)F)CC5)ccn4)[nH]c3c2)ncn1` (single isomer, unassigned) [Example 34.03.01.B, 3,3,3-trifluoro-1-{4-[(1S or 1R)-1-(2-{[6-(6-methoxypyrimidin-4-yl)-1H-benzimidazol-2-yl]amino}pyridin-4-yl)ethyl]piperazin-1-yl}propan-1-one], the pIC50 is 7.30. As for `Cn1ccc(-c2ccc3nc(Nc4cc(CN5CCN(C(=O)C6CC6)CC5)ccn4)[nH]c3c2)n1` [Example 40.03, cyclopropyl{4-[(2-{[6-(1-methyl-1H-pyrazol-3-yl)-1H-benzimidazol-2-yl]amino}pyridin-4-yl)methyl]piperazin-1-yl}methanone], the figure is 6.01. Turning to `COc1ccncc1-c1ccc2nc(Nc3cc(CN4CCN(C(=O)C5CC5)CC4)ccn3)[nH]c2c1` [Example 14.03, cyclopropyl{4-[(2-{[6-(4-methoxypyridin-3-yl)-1H-benzimidazol-2-yl]amino}pyridin-4-yl)methyl]piperazin-1-yl}methanone], the pIC50 is 6.26. As for `Cc1noc(-c2ccc3nc(Nc4cc(CN5CCN(C(=O)OC(C)(C)C)C[C@H]5C)ccn4)[nH]c3c2)n1` [Example 16.03.01, tert-butyl (3R)-3-methyl-4-[(2-{[6-(3-methyl-1,2,4-oxadiazol-5-yl)-1H-benzimidazol-2-yl]amino}pyridin-4-yl)methyl]piperazine-1-carboxylate], the pIC50 is 6.90.

Regarding `COc1cncnc1-c1ccc2nc(Nc3cc(CN4CCN(S(=O)(=O)N5CCC(OC)CC5)CC4)ccn3)[nH]c2c1` [Example 35.01.17, N-[4-({4-[(4-methoxypiperidin-1-yl)sulfonyl]piperazin-1-yl}methyl)pyridin-2-yl]-6-(5-methoxypyrimidin-4-yl)-1H-benzimidazol-2-amine], the pIC50 was 7.41. As for `CC(c1ccnc(Nc2nc3ccc(-c4cc(N5CCCC5)ncn4)cc3[nH]2)c1)N1CCN(C(=O)CC(F)(F)F)CC1` (single isomer, unassigned) [Example 117.03, 3,3,3-trifluoro-1-(4-{(1R or 1S)-1-[2-({6-[6-(pyrrolidin-1-yl)pyrimidin-4-yl]-1H-benzimidazol-2-yl}amino)pyridin-4-yl]ethyl}piperazin-1-yl)propan-1-one], the figure is 9.31; as for `Cc1nccc(-c2ccc3nc(Nc4cc(CN5CCN(C(=O)C6CC6)CC5)cc(C(F)(F)F)n4)[nH]c3c2)n1` [Example 24.03.01, cyclopropyl(4-{[2-{[6-(2-methylpyrimidin-4-yl)-1H-benzimidazol-2-yl]amino}-6-(trifluoromethyl)pyridin-4-yl]methyl}piperazin-1-yl)methanone], 6.32. Consider `COc1cncc(-c2ccc3nc(Nc4cc(CN5CCN(C(=O)C6CC6)CC5)ccn4)[nH]c3c2)n1` [Example 48.01, cyclopropyl{4-[(2-{[6-(6-methoxypyrazin-2-yl)-1H-benzimidazol-2-yl]amino}pyridin-4-yl)methyl]piperazin-1-yl}methanone], for which the pIC50 was 6.71. The result for `CC(C)c1cc(-c2ccc3nc(Nc4cc(CN5CCN(C(=O)C6CC6)CC5)ccn4)[nH]c3c2)ncn1` [Example 78.02, cyclopropyl(4-{[2-({6-[6-(propan-2-yl)pyrimidin-4-yl]-1H-benzimidazol-2-yl}amino)pyridin-4-yl]methyl}piperazin-1-yl)methanone] reads 7.82.

Regarding `CC(C)Nc1cc(-c2ccc3nc(Nc4cc(CN5CCN(C(=O)C6CC6)CC5)ccn4)[nH]c3c2)ncn1` [Example 154.03, cyclopropyl(4-{[2-({6-[6-(propan-2-ylamino)pyrimidin-4-yl]-1H-benzimidazol-2-yl}amino)pyridin-4-yl]methyl}piperazin-1-yl)methanone], the pIC50 is 8.85. Consider `Cn1ccc(-c2ccc3nc(Nc4cc(CN5CCN(C(=O)CC(F)(F)F)CC5)ccn4)[nH]c3c2)n1` [Example 40.01, 3,3,3-trifluoro-1-{4-[(2-{[6-(1-methyl-1H-pyrazol-3-yl)-1H-benzimidazol-2-yl]amino}pyridin-4-yl)methyl]piperazin-1-yl}propan-1-one], for which the pIC50 was 5.95.

As for `CC(c1ccnc(Nc2nc3cc(-c4cc(C(F)(F)F)nn4C)ccc3[nH]2)c1)N1CCN(C(=O)OC(C)(C)C)CC1` (single isomer, unassigned) [Example 88.01, tert-butyl 4-{(1R or 1S)-1-[2-({6-[1-methyl-3-(trifluoromethyl)-1H-pyrazol-5-yl]-1H-benzimidazol-2-yl}amino)pyridin-4-yl]ethyl}piperazine-1-carboxylate], the pIC50 was 4.96. As for `CN(C)c1ccnc(-c2ccc3nc(Nc4cc(CN5CCN(C(=O)CC(F)(F)F)CC5)ccn4)[nH]c3c2)n1` [Example 181.02, 1-(4-{[2-({6-[4-(dimethylamino)pyrimidin-2-yl]-1H-benzimidazol-2-yl}amino)pyridin-4-yl]methyl}piperazin-1-yl)-3,3,3-trifluoropropan-1-one], the figure is 6.82; as for `Cc1nc(-c2ccc3nc(Nc4cc(CN5CCN(C(=O)CC(F)(F)F)CC5)ccn4)[nH]c3c2)cc(N(C)C)n1` [Example 190.02, 1-(4-{[2-({6-[6-(dimethylamino)-2-methylpyrimidin-4-yl]-1H-benzimidazol-2-yl}amino)pyridin-4-yl]methyl}piperazin-1-yl)-3,3,3-trifluoropropan-1-one], 6.06.

A word on the pIC50: it is the IC50 on a negative log10 scale, so that one unit is a factor of ten.
